Laboratory results from US20240239774A1, “SOLUBLE ADENYLYL CYCLASE (SAC) INHIBITORS AND USES THEREOF” (Cornell University, priority 2021, published 2024).
Each block holds one compound with its values, some of them ahead of it.

Columns and labels:
[1] = tested on: purified recombinant human sAC protein; format: biochemical; conditions: 1 mM ATP, 2 mM CaCl2, 4 mM MgCl2, 40 mM NaHCO3
Method: Assays for sAC activity using purified protein were performed in 100 μl reactions containing 4 mM MgCl2, 2 mM CaCl2, 1 mM ATP, 40 mM NaHCO3, 50 mM Tris pH 7.5, and 3 mM DTT. Each reaction contained ˜1,000,000 counts of α-^32P labeled ATP.
All in vitro adenylyl cyclase activity assays were performed via the “two-column” method measuring the conversion of [α-^32P] ATP into [^32P] cAMP, as previously described [References 81, 82]. Briefly, human sACt protein [Reference 21] was incubated in buffer containing 50 mM Tris-HCl, pH 7.5, 4 mM MgCl2, 2 mM CaCl2, 1 mM ATP, 3 mM DTT, 40 mM NaHCO3 in the presence of the indicated concentrations of different sAC inhibitors or vehicle (DMSO).

[2] = cited from earlier work
[3] = tested on: wild type C57B1/6 male mice; assay: Imiquimod-induced type 17 skin inflammation, topical treatment; format: in vivo, mouse; conditions: for Il17a and Il17f expression in the skin (qRT-PCR) / skin inflammation (ear thickness): imiquimod 6 days, then continued imiquimod plus topical twice a day: LRE1 3%, Clobetasol 0.05%; for skin inflammation (ear thickness): Example 1 […]
Method: Wild type C57B1/6 male mice 8-10 week old were purchased from Jackson labs. A 7 mm diameter circle was shaved and treated with Nair on the flank. Baseline ear thickness was measured. For 5 days, mice received daily treatment of 30 mg of 5% imiquimod cream (Taro) to each ear and to the 7 mm area on the flank. Ear thickness was recorded on days 3 and 5 to ensure peak inflammation had occurred. Mice were then randomized into three cohorts: vehicle, LRE1, and Clobetasol. […] Treatment with imiquimod was continued during this period as above. Ear thickness was recorded every day before the first dose of drug. On day 11, all mice were euthanized. A 7 mm punch biopsy was collected from the flank and both ears were removed. Skin was stored in RNAlater (Sigma) for qPCR or 10% formalin for immunohistochemistry.
For tissue, RNA was isolated according to specifications of the RNA easy plus universal mini kit (Qiagen). Tissue was homogenized using stainless steel beads in a bead beater. For frozen cell pellets, RNA was isolated according to specifications of the RNA easy plus mini kit (Qiagen). Samples were homogenized using Qiashredder columns (Qiagen). RNA quality control was performed using a nanodrop spectrophotometer. cDNA was made using the high-capacity rna-to-cdna kit (thermo fischer). The applied biosystems power SYBR green PCR master mix was used for qPCR. 40 cycles with annealing temperatures of 60 degrees celsius and a melting curve were performed using the QuantStudio 6 real-time PCR instrument (thermo fischer). Delta delta CT analysis was performed to determine relative transcription amongst samples normalized to GAPDH.

SMILES: CCCc1nc(C)c2c(=O)[nH]c(-c3cc(S(=O)(=O)N4CCN(CC)CC4)ccc3OCC)nn12 [vardenafil]
half-lives [2]: 4 to 5 h

SMILES: C[C@H]1C[C@H]2[C@@H]3CCC4=CC(=O)C=C[C@]4(C)[C@@]3(F)[C@@H](O)C[C@]2(C)[C@@]1(O)C(=O)CCl [Clobetasol]
Il17a and Il17f expression in the skin (qRT-PCR) [3]: significant reductions in Il17a and Il17f expression
skin inflammation (ear thickness) [3]: significant reduction in skin inflammation

SMILES: CCCc1nn(C)c2c(=O)[nH]c(-c3cc(S(=O)(=O)N4CCN(C)CC4)ccc3OCC)nc12 [sildenafil]
half-lives [2]: 4 to 5 h

SMILES: Cn1cc(Cc2ccccc2OCCN2CCOCC2)c(-c2cc(Cl)nc(N)n2)n1 [Example 69, 4-chloro-6-[1-methyl-4-[[2-(2-morpholinoethoxy)phenyl]methyl]pyrazol-3-yl]pyrimidin-2-amine]
reduction in inflammation ([3]; imiquimod for one week, then imiquimod plus compound, over 4 days, N=5): 50%

SMILES: Cn1cc(Cc2ccc(Cl)cc2)c(-c2cc(Cl)nc(N)n2)n1 [Example 13]
IC50 [1]: ~1 µM

SMILES: Nc1nc(Cl)cc(N(Cc2ccsc2)C2CC2)n1 [LRE1]
inflammation in the ears measured by ear calipers ([3]; applied at the same time as imiquimod, N=5): reduce the inflammation
Il17a and Il17f expression in the skin (qRT-PCR) [3]: significant reductions in Il17a and Il17f expression
skin inflammation (ear thickness) [3]: significant reduction in skin inflammation

Further lines, results first:

IC50 [1]: 1.2 µM
SMILES: CNC(=O)c1ccccc1Cc1cn(C)nc1-c1cc(Cl)nc(N)n1 [Example 52]

IC50 [1]: 0.075 µM
SMILES: Cn1cc(Cc2cccc(Cl)c2)c(-c2cc(Cl)nc(N)n2)n1 [Example 11]

IC50 [1]: 0.015 µM
SMILES: Nc1nc(Cl)cc(-c2nn(C(F)F)cc2Cc2ccccc2OCC(=O)N2CCOCC2)n1 [Example 95]

IC50 [1]: 0.06 µM
SMILES: Cn1cc(Cc2ccccc2Cl)c(-c2cc(Cl)nc(N)n2)n1 [Example 15]

IC50 [1]: 0.058 µM
SMILES: COc1ccccc1Cc1cn(C)nc1-c1cc(Cl)nc(N)n1 [Example 28]

IC50 [1]: 0.11 µM
SMILES: Nc1nc(Cl)cc(-c2nn(C(F)F)cc2Cc2ccccc2)n1 [Example 18]
